Source: ChEMBL document CHEMBL4814079, “Structure-Activity Relationship for the Picolinamide Antibacterials that Selectively Target Clostridioides difficile” (ACS Med Chem Lett, 2021)
pIC50: −log10 of the molar value. ≈ marks a conversion by molar mass, not a printed value.

Experiments:
[1] = system: Clostridioides difficile; assay: Antibacterial activity against Clostridium difficile ATCC 43255 assessed as reduction in bacterial growth measured after 48 hrs by CLSI based broth microdilution method; type: functional
[2] = system: Staphylococcus aureus; assay: Antibacterial activity against […] Staphylococcus aureus ATCC 29213 assessed as reduction in bacterial growth measured after 48 hrs by CLSI based broth microdilution method; type: functional
[3] = system: Bacteroides fragilis; assay: Antibacterial activity against gut Bacteroides fragilis HM-709 assessed as reduction in bacterial growth measured after 48 hrs by CLSI based broth microdilution method; type: organism-based; details: in vitro
[4] = system: Bifidobacterium longum; assay: Antibacterial activity against gut Bifidobacterium longum HM-846 assessed as reduction in bacterial growth measured after 48 hrs by CLSI based broth microdilution method; type: organism-based
[5] = system: Corynebacterium; assay: Antibacterial activity against gut Corynebacterium HM-784 assessed as reduction in bacterial growth measured after 48 hrs by CLSI based broth microdilution method; type: organism-based
[6] = system: Fusobacterium nucleatum; assay: Antibacterial activity against gut Fusobacterium nucleatum HM-992 assessed as reduction in bacterial growth measured after 48 hrs by CLSI based broth microdilution method; type: organism-based; details: in vitro
[7] = Antibacterial activity against gut Limosilactobacillus-reuteri HM-102 assessed as reduction in bacterial growth measured after 48 hrs by CLSI based broth microdilution method
[8] = system: Lactobacillus gasseri; assay: Antibacterial activity against gut Lactobacillus gasseri HM-664 assessed as reduction in bacterial growth measured after 48 hrs by CLSI based broth microdilution method; type: organism-based; details: in vitro
[9] = system: Veillonella; assay: Antibacterial activity against gut Veillonella sp HM-49 assessed as reduction in bacterial growth measured after 48 hrs by CLSI based broth microdilution method; type: organism-based; details: in vitro
[10] = system: Eubacterium sp.; assay: Antibacterial activity against gut Eubacterium sp. HM-178 assessed as reduction in bacterial growth measured after 48 hrs by CLSI based broth microdilution method; type: organism-based
[11] = Selectivity index, ratio of MIC of […] Staphylococcus aureus ATCC 29213 to MIC of Clostridium difficile ATCC 43255; type: functional
[12] = Drug excretion in CD1 mouse feces at 20 mg/kg, po measured upto 8 hrs by LC-MS/MS analysis; type: ADME, organism-based; details: in vivo
[13] = Plasma concentration in CD1 mouse at 20 mg/kg, po measured upto 8 hrs by LC-MS/MS analysis; type: ADME, organism-based; details: in vivo, BLD = below limit of detection
[14] = Ratio of drug excretion in CD-1 mouse feces to MIC for antibacterial activity against Clostridium difficile ATCC 43255; type: toxicity; details: in vivo
[15] = system: HeLa; assay: Cytotoxicity against human HeLa cells assessed as reduction in cell viability incubated for 16 hrs by XTT assay; type: cell-based
[16] = system: HeLa; assay: Cytotoxicity against human HeLa cells assessed as reduction in cell viability at 64 ug/ml incubated for 16 hrs by XTT assay; type: cell-based; details: dose 64 µg/ml
[17] = system: HeLa; assay: Cytotoxicity against human HeLa cells assessed as reduction in cell viability at 256 ug/ml incubated for 16 hrs by XTT assay; type: cell-based; details: dose 256 µg/ml
[18] = system: Enterococcus faecium; assay: Antibacterial activity against Enterococcus faecium ATCC 19434 assessed as reduction in bacterial growth measured after 48 hrs by CLSI based broth microdilution method; type: functional
[19] = Drug excretion in CD1 mouse feces at 10 mg/kg, po measured upto 8 hrs by LC-MS/MS analysis; type: ADME, organism-based; details: in vivo
[20] = Plasma concentration in CD1 mouse at 10 mg/kg, po measured upto 8 hrs by LC-MS/MS analysis; type: ADME, organism-based; details: in vivo, BLD = below limit of detection
[21] = system: HeLa; assay: Cytotoxicity against human HeLa cells assessed as reduction in cell viability at 128 ug/ml incubated for 16 hrs by XTT assay; type: cell-based; details: dose 128 µg/ml

O=C([O-])c1ccc2oc(NC(=O)c3cc(Oc4cccc(OC(F)(F)F)c4)ccn3)nc2c1.[Na+]
MIC [1]: 0.125 µg/mL
MIC [2]: 16 µg/mL
MIC [3]: 4 µg/mL
MIC [4]: 16 µg/mL
MIC [5]: 8 µg/mL
MIC [6]: 4 µg/mL
MIC [7]: 4 µg/mL
MIC [8]: > 16 µg/mL
MIC [9]: 16 µg/mL
MIC [10]: 16 µg/mL
Ratio [11]: 128
Drug excretion [12]: 13 µg/g
Cp [13]: Bld
Ratio [14]: 108

CN[C@H](CC(C)C)C(=O)N[C@H]1C(=O)N[C@@H](CC(N)=O)C(=O)N[C@H]2C(=O)N[C@H]3C(=O)N[C@H](C(=O)N[C@H](C(=O)O)c4cc(O)cc(O)c4-c4cc3ccc4O)[C@H](O)c3ccc(c(Cl)c3)Oc3cc2cc(c3O[C@@H]2O[C@H](CO)[C@@H](O)[C@H](O)[C@H]2O[C@H]2C[C@](C)(N)[C@H](O)[C@H](C)O2)Oc2ccc(cc2Cl)[C@H]1O [VANCOMYCIN]
MIC [3]: 16 µg/mL (≈ 11 µM)
MIC [4]: 0.25 µg/mL (≈ 0.173 µM)
MIC [6]: 0.25 µg/mL (≈ 0.173 µM)
MIC [7]: > 32 µg/mL
MIC [8]: 1 µg/mL (≈ 0.69 µM)
MIC [9]: > 32 µg/mL
MIC [10]: 2 µg/mL (≈ 1.38 µM)

O=C(Nc1ncco1)c1cc(-c2cc(F)cc(F)c2)ccn1
IC50 [15]: 40.1 µg/mL
MIC [1]: 1 µg/mL (≈ 3.32 µM)
MIC [2]: 64 µg/mL (≈ 212 µM)
Ratio [11]: 64

O=C(Nc1ncco1)c1cc(-c2cccc(F)c2)ccn1
MIC [1]: 0.5 µg/mL (≈ 1.77 µM)
MIC [2]: 64 µg/mL (≈ 226 µM)
Ratio [11]: 128
Activity [16]: Non-Toxic

O=C(Nc1ncco1)c1cc(-c2ccc(Cl)c(F)c2)ccn1
MIC [1]: 0.25 µg/mL (≈ 0.787 µM)
MIC [2]: 128 µg/mL (≈ 403 µM)
Ratio [11]: 512
Activity [17]: Non-Toxic

O=C(Nc1ncco1)c1cc(-c2ccc(F)c(Cl)c2)ccn1
MIC [1]: 0.25 µg/mL (≈ 0.787 µM)
MIC [2]: 128 µg/mL (≈ 403 µM)
Ratio [11]: 512

O=C(Nc1ncco1)c1cc(Oc2ccc(SC(F)(F)F)cc2)ccn1
MIC [1]: 1 µg/mL (≈ 2.62 µM)
MIC [2]: ≥ 256 µg/mL
Ratio [11]: > 256

O=C(Nc1ncco1)c1cc(-c2ccc(Cl)c(Cl)c2)ccn1
IC50 [15]: 95.2 µg/mL
MIC [1]: 0.125 µg/mL (≈ 0.374 µM)
MIC [2]: 128 µg/mL (≈ 383 µM)
MIC [18]: ≥ 128 µg/mL
MIC [3]: 4 µg/mL (≈ 12 µM)
MIC [4]: > 16 µg/mL
MIC [5]: 16 µg/mL (≈ 47.9 µM)
MIC [6]: 8 µg/mL (≈ 23.9 µM)
MIC [7]: 4 µg/mL (≈ 12 µM)
MIC [8]: > 16 µg/mL
MIC [9]: 16 µg/mL (≈ 47.9 µM)
MIC [10]: 8 µg/mL (≈ 23.9 µM)
Ratio [11]: 1024
Drug excretion [19]: 0.79 µg/g
Cp [20]: Bld
Ratio [14]: 6.6

O=C(Nc1ncco1)c1cc(-c2ccc(F)c(F)c2)ccn1
MIC [1]: 0.5 µg/mL (≈ 1.66 µM)
MIC [2]: 128 µg/mL (≈ 425 µM)
Ratio [11]: 256
Activity [16]: Non-Toxic

O=C(Nc1ncco1)c1cc(-c2ccc(F)cc2)ccn1
MIC [1]: 1 µg/mL (≈ 3.53 µM)
MIC [2]: 64 µg/mL (≈ 226 µM)
Ratio [11]: 64

O=C(Nc1ncco1)c1cc(-c2cccc(OC(F)(F)F)c2)ccn1
MIC [1]: 0.5 µg/mL (≈ 1.43 µM)
MIC [2]: ≥ 256 µg/mL
Ratio [11]: > 512

O=C(Nc1ncco1)c1cc(-c2ccc(OC(F)(F)F)cc2)ccn1
MIC [1]: 0.25 µg/mL (≈ 0.716 µM)
MIC [2]: 125 µg/mL (≈ 358 µM)
Ratio [11]: 512

O=C([O-])c1ccc2oc(NC(=O)c3cc(Oc4ccc(F)c(F)c4)ccn3)nc2c1.[Na+]
MIC [1]: 0.5 µg/mL
MIC [2]: 64 µg/mL
Activity [21]: Non-Toxic
Drug excretion [12]: 3.7 µg/g
Cp [13]: Bld
Ratio [14]: 7.4

Cc1ncc([N+](=O)[O-])n1CCO [METRONIDAZOLE]
MIC [3]: 1 µg/mL (≈ 5.84 µM)
MIC [4]: 1 µg/mL (≈ 5.84 µM)
MIC [5]: > 32 µg/mL
MIC [6]: 2 µg/mL (≈ 11.7 µM)
MIC [7]: > 32 µg/mL
MIC [8]: > 32 µg/mL
MIC [9]: 2 µg/mL (≈ 11.7 µM)
MIC [10]: 1 µg/mL (≈ 5.84 µM)

O=C(Nc1ncco1)c1cc(-c2ccc(C(F)(F)F)cc2)ccn1
MIC [1]: 0.25 µg/mL (≈ 0.75 µM)
MIC [2]: 128 µg/mL (≈ 384 µM)
Ratio [11]: 512

CCc1c(Cl)c(O)c(Cl)c(O)c1C(=O)O[C@H]1[C@H](O)[C@H](OC)[C@H](OC/C2=C\C=C\C[C@H](O)/C(C)=C/[C@H](CC)[C@@H](O[C@@H]3OC(C)(C)[C@@H](OC(=O)C(C)C)[C@H](O)[C@@H]3O)/C(C)=C/C(C)=C/C[C@@H]([C@@H](C)O)OC2=O)O[C@@H]1C [FIDAXOMICIN]
MIC [1]: 0.0625 µg/mL (≈ 0.0591 µM)
MIC [3]: > 32 µg/mL
MIC [4]: < 0.01 µg/mL
MIC [5]: < 0.0625 µg/mL
MIC [6]: < 0.0625 µg/mL
MIC [7]: > 32 µg/mL
MIC [8]: 2 µg/mL (≈ 1.89 µM)
MIC [9]: 8 µg/mL (≈ 7.56 µM)
MIC [10]: 16 µg/mL (≈ 15.1 µM)

O=C(O)c1ccc2oc(NC(=O)c3cc(-c4cccc(OC(F)(F)F)c4)ccn3)nc2c1
IC50 [15]: 124 µg/mL
MIC [1]: 0.03 µg/mL (≈ 0.0677 µM)
MIC [2]: 16 µg/mL (≈ 36.1 µM)
Ratio [11]: 512

O=C(Nc1ncco1)c1cc(-c2ccc(Cl)cc2)ccn1
MIC [1]: 4 µg/mL (≈ 13.3 µM)
MIC [2]: 128 µg/mL (≈ 427 µM)
Ratio [11]: 32

O=C(O)c1ccc2oc(NC(=O)c3cc(Oc4ccc(F)c(F)c4)ccn3)nc2c1 [listing 1 of 2 here]
Ratio [11]: 128

COc1ccc(Oc2ccnc(C(=O)Nc3ncco3)c2)cc1
MIC [1]: 1 µg/mL (≈ 3.21 µM)
MIC [2]: ≥ 256 µg/mL
Ratio [11]: > 256

O=C(Nc1ncco1)c1cc(Oc2cccc(OC(F)(F)F)c2)ccn1
MIC [1]: 1 µg/mL (≈ 2.74 µM)
MIC [2]: 64 µg/mL (≈ 175 µM)
MIC [3]: 8 µg/mL (≈ 21.9 µM)
MIC [4]: 16 µg/mL (≈ 43.8 µM)
MIC [5]: > 16 µg/mL
MIC [6]: 8 µg/mL (≈ 21.9 µM)
MIC [7]: 4 µg/mL (≈ 11 µM)
MIC [8]: > 16 µg/mL
MIC [9]: 16 µg/mL (≈ 43.8 µM)
MIC [10]: 8 µg/mL (≈ 21.9 µM)
Ratio [11]: 64
Drug excretion [12]: 49 µg/g
Cp [13]: Bld
Ratio [14]: 49

COC(=O)c1ccc2oc(NC(=O)c3cc(Oc4ccc(F)c(F)c4)ccn3)nc2c1
MIC [1]: 0.25 µg/mL (≈ 0.588 µM)
MIC [2]: 64 µg/mL (≈ 150 µM)
Ratio [11]: 256

O=C(Nc1ncco1)c1cc(Oc2ccc(F)c(F)c2)ccn1
MIC [1]: 1 µg/mL (≈ 3.15 µM)
MIC [2]: 64 µg/mL (≈ 202 µM)
Ratio [11]: 64

O=C(Nc1ncco1)c1cc(-c2cccc(C(F)(F)F)c2)ccn1
MIC [1]: 0.5 µg/mL (≈ 1.5 µM)
MIC [2]: 64 µg/mL (≈ 192 µM)
Ratio [11]: 128

O=C(O)c1ccc2oc(NC(=O)c3cc(-c4ccc(OC(F)(F)F)cc4)ccn3)nc2c1
IC50 [15]: 79.9 µg/mL
MIC [1]: 0.03 µg/mL (≈ 0.0677 µM)
MIC [2]: 8 µg/mL (≈ 18 µM)
Ratio [11]: 256

O=C(Nc1ncco1)c1cc(Oc2cccc(F)c2)ccn1
MIC [1]: 1 µg/mL (≈ 3.34 µM)
MIC [2]: ≥ 256 µg/mL
Ratio [11]: > 256
Drug excretion [12]: 2.4 µg/g
Cp [13]: Bld
Ratio [14]: 2.4

O=C(O)c1ccc2oc(NC(=O)c3cc(Oc4ccc(F)c(F)c4)ccn3)nc2c1 [listing 2 of 2 here]
MIC [1]: 0.5 µg/mL (≈ 1.22 µM)
MIC [2]: 64 µg/mL (≈ 156 µM)

O=C(Nc1ncco1)c1ccnc(-c2ccc(Cl)c(Cl)c2)c1
pIC50 [15]: 4.10
MIC [1]: 0.25 µg/mL (≈ 0.748 µM)
MIC [2]: 25 µg/mL (≈ 74.8 µM)
MIC [18]: 0.06 µg/mL (≈ 0.18 µM)
MIC [3]: 1 µg/mL (≈ 2.99 µM)
MIC [4]: > 16 µg/mL
MIC [5]: 0.5 µg/mL (≈ 1.5 µM)
MIC [6]: 8 µg/mL (≈ 23.9 µM)
MIC [7]: 8 µg/mL (≈ 23.9 µM)
MIC [8]: > 16 µg/mL
MIC [9]: 4 µg/mL (≈ 12 µM)
MIC [10]: > 16 µg/mL
Drug excretion [12]: 2.8 µg/g
Cp [13]: Bld
Ratio [14]: 11

O=C(Nc1ncco1)c1cc(Oc2ccc(OC(F)(F)F)cc2)ccn1
MIC [1]: 1 µg/mL (≈ 2.74 µM)
MIC [2]: 128 µg/mL (≈ 350 µM)
Ratio [11]: 128

O=C(Nc1ncco1)c1ccnc(Oc2ccc(Cl)c(Cl)c2)c1
IC50 [15]: 37 µg/mL
